Reference: BindingDB's records for doi:10.1021/acs.jmedchem.7b00951 (Shandong University, 2017)

Assays:
[1] = Antagonist activity at PAR1 in human platelet-rich plasma assessed as reduction in thrombin-stimulated platelet aggregation preincubated for 3 mins followed by thrombin stimulation measured after 5 mins by aggregometric analysis
[2] = Antagonist activity at PAR1 in human platelet-rich plasma assessed as reduction in TRAP-stimulated platelet aggregation preincubated for 20 mins followed by TRAP stimulation measured after 5 mins by aggregometric analysis
[3] = Antagonist activity at PAR1 in human platelet-rich plasma assessed as reduction in thrombin-stimulated platelet aggregation preincubated for 3 mins followed by thrombin stimulation measured after 5 mins by aggregometric analysis; remark: listed apart in the source

Row | SMILES | IC50 [1] [nM] | IC50 [2] [nM] | IC50 [3] [nM]
1 | CCOC(=O)N[C@@H]1CC[C@@H]2[C@@H](C1)C[C@H]1C(=O)O[C@H](C)[C@H]1[C@H]2C=Cc1ccc(-c2cccc(F)c2)cn1 [Ethyl [(3aR,4aR,8aR,9aS)-9(S)-[(E)-2-[5-(3-fluorophenyl)-2-pyridinyl]ethenyl]dodecahydro-1(R)-methyl-3-oxonaphtho[2,3-c]furan-6(R)-yl]carbamate] | 81 | 31 | 
2 | C[C@H]1CC[C@@H]2C(C)(C)[C@H](O)CC[C@@]2(C)[C@@H]1/C=C/c1ccc(-c2cccc(F)c2)cn1 |  | 1600 | 650
